Results published in US20240307350A1, “5-METHOXY-N,N-DIMETHYLTRYPTAMINE (5-MEO-DMT) FOR TREATING DEPRESSION” (GH RESEARCH IRELAND LIMITED, priority 2019, published 2024).

Tests used:
[1] = test system: patients with treatment-resistant major depressive disorder; test: Clinical trial of inhaled 5-MeO-DMT in treatment-resistant major depressive disorder: safety and tolerability; assay type: in vivo, human; conditions: for Reported adverse events: 12 mg inhaled
Description: (§1) A clinical trial was performed in which 5-MeO-DMT free base (purity not less than 99%) was administered to patients with treatment-resistant major depressive disorder (TRD). The objectives of the study were to assess the safety and tolerability, the dose-related psychedelic effects and the effects on various measures of depression of single-day dosing of 5-MeO-DMT. The trial was reviewed and approved by the relevant national competent authority and local medical ethics committee. Patients recruited into the trial had to meet the Diagnostic and Statistical Manual of Mental Disorders-Fifth Edition (DSM-5) diagnostic criteria for single-episode or recurrent major depressive disorder and had to be treatment-resistant, both aspects as evaluated by a psychiatrist or registered psychologist. Patients who were using any psychoactive medication or substance (such as anti-depressive medication) had to discontinue such medication or substance and had to observe a wash-out period before the 5-MeO-DMT administration. On the administration day, a single dose of 12 mg 5-MeO-DMT was administered to the patients via a single inhalation as described in Example 1A. Patients were closely monitored for 3.5 hours after administration, with additional follow-up visits 1 day and 7 days after dosing. Various safety related measures (e.g., adverse event reporting, safety laboratory analyses, vital signs, electrocardiogram (ECG), Clinician Administered Dissociative States Scale (CADSS), Psychomotor Vigilance Test (PVT), Digit Symbol Substitution Test (DSST)), measures of the intensity of the psychedelic effects (e.g., Peak Psychedelic Experience Questionnaire (PPEQ), Altered States of Consciousness (ASC) Questionnaire, Mystical Experience Questionnaire (MEQ30), subjective description of the psychedelic experience), measures of depression severity (Montgomery-Åsberg Depression Rating Scale (MADRS), Patient's Global Impression of Severity scale (PGI-S), Patient's Global Impression of Improvement scale (PGI-I)), and additional psychological measures (e.g., Columbia-Suicide Severity Rating Scale (C-SSRS), Brief Psychiatric Rating Scale (BPRS)) were recorded at different time points. Psychological support via a psychologist and/or psychiatrist was available to the patients throughout the study, but no specific psychotherapy was applied, and no additional psychoactive medication was provided.
Two patients with major depressive disorder diagnosed by a psychiatrist according to DSM-5 diagnostic criteria were recruited into the study (Example 2, Table 1). The patients were considered treatment-resistant because they had not shown adequate improvement to at least two adequate courses of pharmacological therapy in the current episode of depression.

[2] = test system: patients with treatment-resistant major depressive disorder; test: Clinical trial in treatment-resistant major depressive disorder: intensity of the psychedelic effects (MEQ30, ASC, PPEQ); assay type: in vivo, human; conditions: for ASC Oceanic Boundlessness (0-2700) / MEQ30 Ineffability (0 to 5) / MEQ30 Mystical (0 to 5) / MEQ30 Positive Mood (0 to 5) / MEQ30 Total Score Average (0 to 5) / MEQ30 Transcendence Time/Space (0 to 5) / PPEQ Intensity (0-100) / PPEQ Loss of Control (0-100) / PPEQ Profoundness (0-100) / PPEQ Total Score (0-100) / PPEQ PPE achieved / MEQ30 PPE achieved / ASC PPE achieved: 12 mg inhaled; for PPEQ PPE achieved: PPEQ Total Score of at least 75; for MEQ30 PPE achieved: at least 60% of the maximum possible score in each of the four subscales; for ASC PPE achieved: at least 60% of the maximum possible score of Oceanic Boundlessness
Text: The occurrence of a “peak psychedelic experience” in a patient can be identified through achievement of at least 60% of the maximum possible score in each of the four subscales (mystical, positive mood, transcendence of time and space, and ineffability) of the 30-item revised Mystical Experience Questionnaire (MEQ30) (as described in Barrett F S, J Psychopharmacol. 2015; 29(11):1182-90; Score items shown in Example 4).
The occurrence of a “peak psychedelic experience” in a patient can also be identified through achievement of at least 60% of the maximum possible score of the Oceanic Boundlessness (OBN) dimension of the Altered States of Consciousness (ASC) questionnaire (as described in Roseman L et al., Front Pharmacol. 2018; 8:974).
The occurrence of a “peak psychedelic experience” in a patient can also be identified through achievement of a score of at least 75 in the Peak Psychedelic Experience Questionnaire (PPEQ) Total Score, which averages answers scored by the patient from 0 to 100 for the following three questions: 1. How intense was the experience; 2. To what extent did you lose control; 3. How profound (i.e. deep and significant) was the experience?
as §1
The score for each individual subscale is computed by calculating the average score (from the scale of 0 to 5) for the phenomena belonging to the subscale as listed below.
The MEQ30-total score is computed by taking the average response to all phenomena. […]

[3] = single dose of 12 mg via inhalation, both patients

COc1ccc2[nH]cc(CCN(C)C)c2c1 [5-MeO-DMT, 5-methoxy-N,N-dimethyltryptamine]
ECG, safety laboratory analyses, CADSS and cognitive tests (PVT, DSST) ([1]; ECG at 3 hours, laboratory at 3 hours and 7 days, CADSS at 3 hours, 1 day and 7 days, PVT, DSST at 1 day and 7 days): unremarkable
Reported adverse events ([1]; Patient 1, Administration day, mild, resolved spontaneously): Dizziness
Reported adverse events ([1]; Patient 1, Day 1, mild, resolved spontaneously): Headache, Flashback
Reported adverse events ([1]; Patient 1, Day 7, mild, resolved spontaneously): Headache
Reported adverse events ([1]; Patient 2, Administration day): None reported
Reported adverse events ([1]; Patient 2, Day 1, mild, resolved spontaneously): Headache
Reported adverse events ([1]; Patient 2, Day 7): None reported
changes in vital parameters ([1]; shortly after administration of 12 mg, both patients): temporary, not clinically relevant increase in heart rate and blood pressure
tolerability of the inhalation procedure [1, 3]: well tolerated with no inhalation-related adverse events
ASC Oceanic Boundlessness (0-2700) ([2]; Patient 1): 1696
MEQ30 Ineffability (0 to 5) ([2]; Patient 1): 4.7
MEQ30 Mystical (0 to 5) ([2]; Patient 1): 3.5
MEQ30 Positive Mood (0 to 5) ([2]; Patient 1): 4.5
MEQ30 Total Score Average (0 to 5) ([2]; Patient 1): 3.8
MEQ30 Transcendence Time/Space (0 to 5) ([2]; Patient 1): 3.7
PPEQ Intensity (0-100) ([2]; Patient 1): 94
PPEQ Loss of Control (0-100) ([2]; Patient 1): 45
PPEQ Profoundness (0-100) ([2]; Patient 1): 87
PPEQ Total Score (0-100) ([2]; Patient 1): 75.3
PPEQ PPE achieved ([2]; Patient 1): Yes
MEQ30 PPE achieved ([2]; Patient 1): Yes
ASC PPE achieved ([2]; Patient 1): Yes
ASC Oceanic Boundlessness (0-2700) ([2]; Patient 2): 1297
MEQ30 Ineffability (0 to 5) ([2]; Patient 2): 3.3
MEQ30 Mystical (0 to 5) ([2]; Patient 2): 3.1
MEQ30 Positive Mood (0 to 5) ([2]; Patient 2): 4.0
MEQ30 Total Score Average (0 to 5) ([2]; Patient 2): 3.4
MEQ30 Transcendence Time/Space (0 to 5) ([2]; Patient 2): 3.5
PPEQ Intensity (0-100) ([2]; Patient 2): 100
PPEQ Loss of Control (0-100) ([2]; Patient 2): 58
PPEQ Profoundness (0-100) ([2]; Patient 2): 80
PPEQ Total Score (0-100) ([2]; Patient 2): 79.3
PPEQ PPE achieved ([2]; Patient 2): Yes
MEQ30 PPE achieved ([2]; Patient 2): Yes
ASC PPE achieved ([2]; Patient 2): No
duration of the psychedelic experience as judged by an external observer ([2]; patient 1, single dose of 12 mg via inhalation): 16 min
duration of the psychedelic experience as judged by an external observer ([2]; patient 2, single dose of 12 mg via inhalation): 40 min
first psychedelic symptoms after the inhalation (onset) [2, 3]: within a few seconds
